Legend:
[1] = biological target: T1, human recombinant ALDH1a1 (Homo sapiens, UniProt P00352); assay: ALDH enzyme inhibition assay (ALDH1a1), diaphorase/resorufin fluorescence; type: biochemical; conditions: for IC50: read-out: IC50 (µM) ± SE (ALDH1a1); for fold reduction of ALDH1a1 inhibitory activity: relative to compound (2)
T1 sequence (P00352 1-501): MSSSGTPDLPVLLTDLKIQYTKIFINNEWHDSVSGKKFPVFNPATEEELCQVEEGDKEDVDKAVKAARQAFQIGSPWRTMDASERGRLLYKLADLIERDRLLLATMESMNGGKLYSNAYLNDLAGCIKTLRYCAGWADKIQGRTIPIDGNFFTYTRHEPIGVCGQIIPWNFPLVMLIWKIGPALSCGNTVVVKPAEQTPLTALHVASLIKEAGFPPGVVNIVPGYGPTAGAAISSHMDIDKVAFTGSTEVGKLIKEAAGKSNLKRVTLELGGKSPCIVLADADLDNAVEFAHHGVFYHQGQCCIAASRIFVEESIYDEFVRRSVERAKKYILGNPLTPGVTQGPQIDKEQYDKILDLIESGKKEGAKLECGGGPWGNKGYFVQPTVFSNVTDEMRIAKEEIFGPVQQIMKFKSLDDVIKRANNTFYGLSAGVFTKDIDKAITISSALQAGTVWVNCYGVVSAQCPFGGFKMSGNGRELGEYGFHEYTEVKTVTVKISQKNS
Procedure: (§1) The inhibitory activity of the thiuram disulfide (4) was evaluated in vitro against human recombinant ALDH1a1 and ALDH2, as shown in Figure 3 and Table 1.
(§2) All tested compounds were prepared as 100 mM stock solutions in DMSO. […] Five µL of desalted enzyme […] Five µL of reaction buffer were also added to the “no enzyme” background control wells. The test compounds were added to the assay wells. The reaction plate was then centrifuged briefly at 1200 rpm, then incubated for 20 min at RT. […] The reaction plate was briefly centrifuged and incubated at RT for 60 min. Ten µL of detection reagent composed of 15 µg/mL diaphorase and […] were added. The reaction plate was briefly centrifuged and incubated for a further 10 min at RT in the dark.

human recombinant ALDH2 [2] = biological target: T2, human recombinant ALDH2 (Homo sapiens, UniProt P05091); assay: ALDH enzyme inhibition assay (ALDH2), diaphorase/resorufin fluorescence; type: biochemical; conditions: average of at least two experiments ± standard error; 100 µM acetaldehyde, 500 µM NAD+; 20 min preincubation; NI = no inhibition up to 0.5 mM; read-out: IC50 (µM) ± SE (ALDH2)
T2 sequence (P05091 18-517): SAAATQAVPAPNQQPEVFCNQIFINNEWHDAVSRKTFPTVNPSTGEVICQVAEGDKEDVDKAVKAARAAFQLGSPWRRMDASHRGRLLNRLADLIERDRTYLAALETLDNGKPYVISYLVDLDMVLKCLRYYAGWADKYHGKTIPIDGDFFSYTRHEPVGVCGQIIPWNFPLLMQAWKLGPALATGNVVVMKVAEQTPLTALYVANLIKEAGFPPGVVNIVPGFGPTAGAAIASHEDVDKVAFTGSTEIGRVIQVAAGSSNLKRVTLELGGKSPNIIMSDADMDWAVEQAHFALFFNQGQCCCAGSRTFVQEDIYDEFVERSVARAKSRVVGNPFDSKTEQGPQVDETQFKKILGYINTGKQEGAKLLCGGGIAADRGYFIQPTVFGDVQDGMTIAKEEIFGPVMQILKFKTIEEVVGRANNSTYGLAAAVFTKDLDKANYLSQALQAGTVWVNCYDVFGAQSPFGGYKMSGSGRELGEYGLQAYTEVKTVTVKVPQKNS
Procedure: as §1, §2

human recombinant ALDH2 [3] = biological target: T2, human recombinant ALDH2; conditions: previously reported; cited from earlier work
[4] = average of at least two experiments ± standard error, 250 µM acetaldehyde, 500 µM NAD+, 20 min preincubation, NI = no inhibition up to 0.5 mM

CCN(Cc1ccco1)C(=S)SSC(=S)N(CC)Cc1ccco1 [Compound 4g, bis(N-(2-furylmethyl)ethylthiocarbamoyl)disulphide]
IC50 [1, 4]: 0.39 ± 0.27 µM | IC50 (human recombinant ALDH2 [2]): 200 µM

CCN(Cc1cccc(F)c1)C(=S)SSC(=S)N(CC)Cc1cccc(F)c1 [Compound 4a, bis(N-3-Fluorobenzylethylthiocarbamoyl)disulphide]
IC50 [1, 4]: 0.31 ± 0.14 µM | fold reduction of ALDH1a1 inhibitory activity [1]: 2 fold | IC50 (human recombinant ALDH2 [2]): > 500 µM

CCN(Cc1ccccc1F)C(=S)SSC(=S)N(CC)Cc1ccccc1F [Compound 4b, bis(N-2-Fluorobenzylethylthiocarbamoyl)disulphide]
IC50 [1, 4]: 0.59 ± 0.46 µM | fold reduction of ALDH1a1 inhibitory activity [1]: 3.5 fold | IC50 (human recombinant ALDH2 [2]): > 500 µM

CCN(Cc1ccsc1)C(=S)SSC(=S)N(CC)Cc1ccsc1 [Compound 4i, bis(N-(3-thienylmethyl)ethylthiocarbamoyl)disulphide]
IC50 [1, 4]: 0.17 ± 0.1 µM | IC50 (human recombinant ALDH2 [2]): > 500 µM

CCN(Cc1ccc(Cl)cc1)C(=S)SSC(=S)N(CC)Cc1ccc(Cl)cc1 [Compound 4c, bis(N-4-Chlorobenzylethylthiocarbamoyl)disulphide]
IC50 [1, 4]: 0.86 ± 0.68 µM | fold reduction of ALDH1a1 inhibitory activity [1]: five | IC50 (human recombinant ALDH2 [2]): > 500 µM

CCN(Cc1ccc(C(F)(F)F)cc1)C(=S)SSC(=S)N(CC)Cc1ccc(C(F)(F)F)cc1 [Compound 4d, bis(N-4-trifluoromethylbenzylethylthiocarbamoyl)disulphide]
IC50 (µM) ± SE (ALDH1a1) [1, 4]: completely inactive | IC50 [1, 4]: > 500 µM | IC50 (human recombinant ALDH2 [2]): > 500 µM

CCN(Cc1ccncc1)C(=S)SSC(=S)N(CC)Cc1ccncc1 [Compound 4f, bis(N-(4-pyridylmethyl)ethylthiocarbamoyl)disulphide]
IC50 [1, 4]: 5.76 ± 4.01 µM | fold reduction of ALDH1a1 inhibitory activity [1]: more than 33 fold | IC50 (human recombinant ALDH2 [2]): > 500 µM

CCN(Cc1cccs1)C(=S)SSC(=S)N(CC)Cc1cccs1 [Compound 4h, bis(N-(2-thienylmethyl)ethylthiocarbamoyl)disulphide]
IC50 [1, 4]: 0.39 ± 0.31 µM | IC50 (human recombinant ALDH2 [2]): > 500 µM

CCN(Cc1ccc(F)cc1)C(=S)SSC(=S)N(CC)Cc1ccc(F)cc1 [Compound 2]
IC50 [1, 4]: 0.17 ± 0.06 µM | IC50 (human recombinant ALDH2 [2]): > 500 µM | IC50 against ALDH2 (human recombinant ALDH2 [3]): no inhibition

CCN(Cc1ccc(OC)cc1)C(=S)SSC(=S)N(CC)Cc1ccc(OC)cc1 [Compound 4e]
IC50 [1, 4]: 0.58 ± 0.41 µM | IC50 (human recombinant ALDH2 [2]): > 500 µM
